Measurements reported in patent publication US8129514B2, “Nucleotide sequences for regulating gene expression in plant trichomes and constructs and methods utilizing same” (Evogene Ltd., priority 2003, dated 2012).
Marks after values point to notes of the source that are not given here.

Key:
[1] = test system: PPO; conditions: positive control at 200 mM; PPO harvested from trichome cells; cited from earlier work
[2] = test system: PPO; experiment: Decrease of PPO activity (browning of supernatant) by antioxidants in ground tomato leaves; assay type: biochemical, Tomato (L. esculentum); conditions: for Efficient concentration (minimal concentration that enables a decrease of 95% of PPO activity): w/v, 10 mM Tris-HCl pH=8, about 2 hrs at 4° C.
Procedure: Three compounds were tested: citric acid, ascorbic acid and sodium bisulfite. Different concentrations of chemicals were used to identify the chemical with the highest antioxidant activity. Tomato (L. esculentum) young leaves (about 100 mg) were grinded at 4° C. in 200 μl of 10 mM Tris-HCl pH=8 buffer containing appropriate concentration of antioxidant (0.01-2.0% w/v), incubated for about 2 hrs at 4° C. and centrifuged at 14,000 rpm for 3 min in order to separate leaves-debris and liquid fraction. Decreasing of PPO activity was inspected by eliminating the production of brown color of the supernatant as a result of the oxidation of polyphenols. Table 8 below summarizes the minimal concentration that enables a decrease of 95% of PPO activity.
A buffer without any antioxidant was used as a negative control.

[3] = test system: tomato trichome; experiment: GUS staining of leaves of T1 tomato plants carrying promoter-GUS constructs; assay type: in vivo, tomato (Lycopersicon esculentum cv. Micro-Tom)
Procedure: Tomato transformation—Tomato transformation was carried out according to Fillati et al. (19). Briefly, Lycopersicon esculentum cv. Micro-Tom cotyledons were used for Agrobacterium based plant transformation. The Micro-Tom seeds were surface sterilized for 10 min in a 3% sodium hypochlorite solution. The seeds were washed with DDW three times and soaked for three hours in fresh DDW, then plated into 0.5 L container with Nitsch medium, containing MS salts, 3% sucrose, Nitsch vitamins and 0.8% plant agar (Duchefa, Netherland). The PH was adjusted to 5.8 prior to autoclaving for 20 min at 121° C. 50 seeds where plated on 0.5 L sterilized container containing the germination medium and left at 25° C. in culture room, 16/8 hrs light/dark cycles, under light intensity of (150 μEm^−2S). Seedlings where grown for 8 days.
A. GUS staining—Gus staining of tomato and tobacco plants was effected as previously described (15). Briefly: Leaves were fixed in 90% ice cold acetone for 15-20 minutes (on ice), followed by removal of acetone and a double tissue rinsing with the Working Solution [25 mM Sodium Phosphate (Sigma, USA) buffer pH=7, Ferricyanide (Sigma, USA) 1.25 mM, Ferrocyanide (Sigma, USA) 1.25 mM, Triton X-100 (Sigma, USA) 0.25%, EDTA (BioLab) 0.25 mM] for 15-20 minutes. Rinse solution was removed, replaced with Staining solution [Working solution with 5-bromo-4-chloro-3-indolyl-β-D-glucuronic acid (X-GlcA, Duchefa) solubilized in N,N-Dimethylformamide (BioLab) 1.5 mg/ml and Dithiothreitol (DTT, Bio Lab) 100 mM] and incubated in the dark (tubes wrapped with aluminum foil) over night at 37° C. Distaining was effected by sinking the plant tissue in 70% ethanol and heating at 50° C. for ˜2 hours. The distaining step was repeated until the plant tissue became transparent except the blue stained regions. Distained plants were stored in 70% ethanol (BioLab) at room temperature.
GUS staining was performed on leaves of T1 tomato and tobacco plants transfected with a binary vector including putative trichome specific promoters upstream of a GUS gene. […]

Molecule: O[C@H](CS)[C@H](O)CS (racemic) [DDT, Dithiothreitol]
- PPO activity [1]: eliminate PPO activity

Molecule: O=C1O[C@H]([C@@H](O)CO)C(O)=C1O [Ascorbic acid]
- Efficient concentration (minimal concentration that enables a decrease of 95% of PPO activity) [2]: 1.0%*

Molecule: O=C(O)CC(O)(CC(=O)O)C(=O)O [Citric acid]
- Efficient concentration (minimal concentration that enables a decrease of 95% of PPO activity) [2]: 1.0%

Molecule: O=S([O-])O.[Na+] [Sodium bisulfite]
- PPO activity as indicated by medium browning ([2]; increasing concentrations, FIG. 3): decreased PPO activity
- Efficient concentration (minimal concentration that enables a decrease of 95% of PPO activity) [2]: 0.05%

B1: TR27-P: previously described cotton promoter, G. barbadense var. Pima 15, SEQ ID NO: 39 (nucleic acid)
DNA: AAGCTTTAAGTTTAAATCCTATTGTAGTGTTATTTATAAAAAAAATGAGAAAAGATAAAAATACCTTTATATTAATATTTGTTATATTATAAAATAAGGATATTTTTAACAAATTTTCAATTGAATAGATGTTTGGGTGAATCCTAATACCAATTAAAGTATATATACAGCAAACAATTATAAATCAAATTACTTTTAATAAAATGCTATCATTCAATTCAATGACAATAAATGCATTTATAAATACATCAAATGTAAATCTCATGTTTATAAGAAAACACGTAGAAAAAAAGTTAAACCAATATTTGAGTCCTAGCTGTGGAGGCATGATTGAGTGAAATCAAATGGACGCTGGTTTTAATTCTATTGAAAGAAACCAATAATCACGTAGGTTGGCAGTTGAACATAATTGAATGGTCTCAACTTTTAATGTGGTGTTAATGTTTGGATCGGATAATCTCAACTTACCTAATAGCTAGGAAAGTAAAATTCAAACATCACCCGCTACTACTTTTGGCTATAAAAACCCTCCTACCCTCAAGCCCTAACCACGACAATCACCAATAGTACTACTACTCCAAGCAAGTATTTTCCTTACACGTTTGTTTTTCTTGTGATAATGGATCC
modifications: Gossypium barbadense
- Avg grade ([3]; GUS staining, tomato T1 generation, signal peptide: No): 0.4
- GUS expression pattern ([3]; GUS under the regulation of the promoter, FIGS. 1d-h): expressed in a trichome-gland specific manner
- effectiveness in facilitating expression of heterologous genes in the tomato trichome ([3]; conclusion from Table 6): most effective
